The values below come from patent US11116778B2, “Prodrugs of ALOX-15 inhibitors and methods of using the same” (EMPIRICO INC., priority 2019, dated 2021).

For this assay, the target named is T1, ALOX15 in human nasal epithelial primary cells (HNEpC) (Homo sapiens, UniProt P16050).
T1 construct: host or cells: human nasal epithelial primary cells (HNEpC), treated with IL-13
T1 sequence (P16050 1-662): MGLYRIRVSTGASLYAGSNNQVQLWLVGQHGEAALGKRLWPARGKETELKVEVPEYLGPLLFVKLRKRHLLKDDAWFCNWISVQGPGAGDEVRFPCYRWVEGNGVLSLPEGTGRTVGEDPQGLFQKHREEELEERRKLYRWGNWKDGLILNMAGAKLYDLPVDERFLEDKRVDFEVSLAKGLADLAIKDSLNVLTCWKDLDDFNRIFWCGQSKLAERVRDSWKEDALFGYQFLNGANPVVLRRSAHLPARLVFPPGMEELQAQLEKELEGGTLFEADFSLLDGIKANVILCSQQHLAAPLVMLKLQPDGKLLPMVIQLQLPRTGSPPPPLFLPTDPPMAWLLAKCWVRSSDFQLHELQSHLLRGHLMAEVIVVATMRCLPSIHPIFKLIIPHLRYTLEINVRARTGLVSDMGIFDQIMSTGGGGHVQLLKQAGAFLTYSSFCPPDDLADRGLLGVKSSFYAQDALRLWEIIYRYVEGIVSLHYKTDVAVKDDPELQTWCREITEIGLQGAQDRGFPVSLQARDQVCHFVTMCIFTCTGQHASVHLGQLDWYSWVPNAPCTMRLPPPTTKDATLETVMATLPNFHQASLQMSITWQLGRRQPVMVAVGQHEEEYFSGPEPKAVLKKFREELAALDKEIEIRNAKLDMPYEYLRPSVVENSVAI
Briefly: ALOX15 metabolite levels (15-HETE, 13-HODE) in human nasal epithelial primary cells. Particulars: 5 μM or 1 μM. Type of assay: cell-based. How it is done:
Human nasal epithelial primary cells (HNEpC) (PromoCell GmbH, Heidelberg, Germany) were cultured according to the manufacturer in provided Primary Cell media in 24 well plates at a density of 25,000 cells per well. Cells were treated with 5 μM or 1 μM of compound 5 or vehicle only (water) in media containing 20 ng/mL IL-13 for 24 hours in a 37° C. cell culture incubator. The following day, media was replaced and fresh media containing 20 ng/mL IL-13 and compound 5 or vehicle was added to each well, then incubated again for 24 hours in a 37° C. cell culture incubator. The process was repeated once more for a 24-hour period.
To determine levels of arachidonic acid and linoleic acid metabolites after compound treatment, cell media was replaced with fresh Primary Cell media without IL-13. ALOX15 substrate (arachidonic acid or linoleic acid) was added to each well at a concentration of 1.5 μM and cells further incubated 37° C. for 1 hour. Media was collected from each well and quenched with an equal volume of LC/MS extraction buffer (methanol, 60 mM ascorbic acid, 0.1% acetic acid).
15-HETE and 13-HODE were quantified using LC-MS/MS (QTrap5500, Applied Biosystems). Q1/Q3 masses: 319.10/219.10 for 15-HETE and 295.10/195.10 Da for 13-HODE. Deuterated 15-HETE (Cayman Chemical) was used as the internal standard. The Q1/Q3 masses are 327.10/184.10 Da for the 15-HETE deuterated standard. […]

Take `O=C(Nc1ccc(F)cc1Cl)c1nn(COP(=O)(O)O)c(Cl)c1Cl` [compound 5, (4,5-dichloro-3-((2-chloro-4-fluorophenyl)carbamoyl)-1H-pyrazol-1-yl)methyl dihydrogen phosphate]: the “15-HETE produced versus vehicle alone (FIG. 4)” value (3 x 24 hours with 20 ng/mL IL-13, then 1.5 μM arachidonic acid 1 hour) is on record as “less”. The “13-HODE produced versus vehicle alone (FIG. 5)” value (3 x 24 hours with 20 ng/mL IL-13, then 1.5 μM linoleic acid 1 hour) is “less”.
